In PubChem BioAssay (NCI):
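48-hour exposure; five concentrations; linearly interpolated endpoints. TGI: total growth inhibition.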

Columns and labels:
Experiment in all cases: NCI tumour cell line growth inhibition, 48 h
SK-OV-3 ovarian = system: SK-OV-3 ovarian
SN12C renal = system: SN12C renal
A549 NSCLC = system: A549 NSCLC
EKVX NSCLC = system: EKVX NSCLC
UACC-257 melanoma = system: UACC-257 melanoma
MALME-3M melanoma = system: MALME-3M melanoma
NCI-H226 lung = system: NCI-H226 lung
MDA-MB-435 = system: MDA-MB-435
BT-549 breast = system: BT-549 breast
SK-MEL-5 melanoma = system: SK-MEL-5 melanoma
HOP-62 NSCLC = system: HOP-62 NSCLC
SR leukemia = system: SR leukemia
SK-MEL-28 melanoma = system: SK-MEL-28 melanoma
U251 CNS = system: U251 CNS
OVCAR-8 ovarian = system: OVCAR-8 ovarian
HT29 colon = system: HT29 colon
SF-295 CNS = system: SF-295 CNS
COLO 205 colon = system: COLO 205 colon
CCRF-CEM leukemia = system: CCRF-CEM leukemia
OVCAR-5 ovarian = system: OVCAR-5 ovarian
HCT-15 colon = system: HCT-15 colon
IGROV1 ovarian = system: IGROV1 ovarian
RXF 393 renal = system: RXF 393 renal
M14 melanoma = system: M14 melanoma
SNB-19 CNS = system: SNB-19 CNS
T-47D breast = system: T-47D breast
MDA-MB-231 breast = system: MDA-MB-231 breast
UACC-62 melanoma = system: UACC-62 melanoma
MDA-N = system: MDA-N
NCI-H460 lung = system: NCI-H460 lung
RPMI-8226 leukemia = system: RPMI-8226 leukemia
OVCAR-3 ovarian = system: OVCAR-3 ovarian
OVCAR-4 ovarian = system: OVCAR-4 ovarian
LOX IMVI melanoma = system: LOX IMVI melanoma
K-562 leukemia = system: K-562 leukemia
A498 renal = system: A498 renal
HOP-92 NSCLC = system: HOP-92 NSCLC
786-0 renal = system: 786-0 renal
NCI-H522 lung = system: NCI-H522 lung
TK-10 renal = system: TK-10 renal
HL-60(TB) leukemia = system: HL-60(TB) leukemia
PC-3 prostate = system: PC-3 prostate
DU-145 prostate = system: DU-145 prostate
SW-620 colon = system: SW-620 colon
SNB-75 CNS = system: SNB-75 CNS
HCT-116 colon = system: HCT-116 colon
SK-MEL-2 melanoma = system: SK-MEL-2 melanoma
NCI/ADR-RES ovarian = system: NCI/ADR-RES ovarian
MOLT-4 leukemia = system: MOLT-4 leukemia
HCC-2998 colon = system: HCC-2998 colon
CAKI-1 renal = system: CAKI-1 renal
NCI-H23 lung = system: NCI-H23 lung
KM12 colon = system: KM12 colon
SF-539 CNS = system: SF-539 CNS
ACHN renal = system: ACHN renal
HS 578T breast = system: HS 578T breast
UO-31 renal = system: UO-31 renal
SF-268 CNS = system: SF-268 CNS
MCF7 breast = system: MCF7 breast

Q: Which results are given for `O=C1c2ccccc2-c2nnc(-c3ccc([N+](=O)[O-])cc3)cc21`?
A: TGI (SK-OV-3 ovarian): > 10 µM; TGI (SN12C renal): > 10 µM; TGI (A549 NSCLC): > 10 µM; TGI (EKVX NSCLC): > 10 µM; TGI (UACC-257 melanoma): > 10 µM; TGI (MALME-3M melanoma): > 10 µM; TGI (NCI-H226 lung): > 10 µM; TGI (MDA-MB-435): > 10 µM; TGI (BT-549 breast): > 10 µM; TGI (SK-MEL-5 melanoma): > 10 µM; TGI (HOP-62 NSCLC): > 10 µM; TGI (SR leukemia): > 10 µM; TGI (SK-MEL-28 melanoma): > 10 µM; TGI (U251 CNS): > 10 µM; TGI (OVCAR-8 ovarian): > 10 µM; TGI (HT29 colon): > 10 µM; TGI (SF-295 CNS): > 10 µM; TGI (COLO 205 colon): > 10 µM; TGI (CCRF-CEM leukemia): > 10 µM; TGI (OVCAR-5 ovarian): > 10 µM; TGI (HCT-15 colon): > 10 µM; TGI (IGROV1 ovarian): > 10 µM; TGI (RXF 393 renal): > 10 µM; TGI (M14 melanoma): > 10 µM; TGI (SNB-19 CNS): > 10 µM; TGI (T-47D breast): > 10 µM; TGI (MDA-MB-231 breast): > 10 µM; TGI (UACC-62 melanoma): > 10 µM; TGI (MDA-N): > 10 µM; TGI (NCI-H460 lung): > 10 µM; TGI (RPMI-8226 leukemia): > 10 µM; TGI (OVCAR-3 ovarian): > 10 µM; TGI (OVCAR-4 ovarian): > 10 µM; TGI (LOX IMVI melanoma): > 10 µM; TGI (K-562 leukemia): > 10 µM; TGI (A498 renal): > 10 µM; TGI (HOP-92 NSCLC): > 10 µM; TGI (786-0 renal): > 10 µM; TGI (NCI-H522 lung): > 10 µM; TGI (TK-10 renal): > 10 µM; TGI (HL-60(TB) leukemia): > 10 µM; TGI (PC-3 prostate): > 10 µM; TGI (DU-145 prostate): > 10 µM; TGI (SW-620 colon): > 10 µM; TGI (SNB-75 CNS): > 10 µM; TGI (HCT-116 colon): > 10 µM; TGI (SK-MEL-2 melanoma): > 10 µM; TGI (NCI/ADR-RES ovarian): > 10 µM; TGI (MOLT-4 leukemia): > 10 µM; TGI (HCC-2998 colon): > 10 µM; TGI (CAKI-1 renal): > 10 µM; TGI (NCI-H23 lung): > 10 µM; TGI (KM12 colon): > 10 µM; TGI (SF-539 CNS): > 10 µM; TGI (ACHN renal): > 10 µM; TGI (HS 578T breast): > 10 µM; TGI (UO-31 renal): > 10 µM; TGI (SF-268 CNS): > 10 µM; TGI (MCF7 breast): > 10 µM

Q: With `CC(=O)Nc1ccc(-c2nc3ccccc3s2)cc1Br` as the molecule, how does the TGI (SK-OV-3 ovarian) read?
A: The TGI was 75 µM.

Q: What about the TGI (SN12C renal) of the same molecule?
A: Its TGI is greater than 100 µM.

Q: What about the TGI (A549 NSCLC) of the same molecule?
A: The TGI was greater than 100 µM.

Q: What about the TGI (EKVX NSCLC) of the same molecule?
A: The TGI was greater than 97.1 µM.

Q: And the TGI (UACC-257 melanoma)?
A: The TGI was greater than 100 µM.

Q: And the TGI (MALME-3M melanoma)?
A: The TGI was greater than 100 µM.

Q: What about the TGI (NCI-H226 lung) of the same molecule?
A: The TGI was greater than 94.7 µM.

Q: What about the TGI (MDA-MB-435) of the same molecule?
A: The TGI was greater than 100 µM.

Q: And the TGI (BT-549 breast)?
A: The TGI was greater than 100 µM.

Q: What about the TGI (SK-MEL-5 melanoma) of the same molecule?
A: The TGI was greater than 100 µM.

Q: And the TGI (HOP-62 NSCLC)?
A: The TGI was 56.7 µM.

Q: What about the TGI (SR leukemia) of the same molecule?
A: Its TGI is greater than 100 µM.

Q: What about the TGI (SK-MEL-28 melanoma) of the same molecule?
A: Its TGI is greater than 100 µM.

Q: And the TGI (U251 CNS)?
A: The TGI was greater than 100 µM.

Q: What about the TGI (OVCAR-8 ovarian) of the same molecule?
A: The TGI was greater than 93.7 µM.

Q: What about the TGI (HT29 colon) of the same molecule?
A: The TGI was greater than 100 µM.

Q: And the TGI (SF-295 CNS)?
A: The TGI was greater than 100 µM.

Q: And the TGI (COLO 205 colon)?
A: Its TGI is greater than 100 µM.

Q: And the TGI (CCRF-CEM leukemia)?
A: Its TGI is greater than 100 µM.

Q: What about the TGI (HCT-15 colon) of the same molecule?
A: Its TGI is greater than 100 µM.

Q: And the TGI (IGROV1 ovarian)?
A: Its TGI is 17.4 µM.

Q: What about the TGI (RXF 393 renal) of the same molecule?
A: Its TGI is 66 µM.

Q: And the TGI (M14 melanoma)?
A: Its TGI is greater than 100 µM.

Q: What about the TGI (SNB-19 CNS) of the same molecule?
A: The TGI was greater than 93.4 µM.

Q: And the TGI (T-47D breast)?
A: Its TGI is greater than 100 µM.

Q: What about the TGI (MDA-MB-231 breast) of the same molecule?
A: Its TGI is greater than 89 µM.

Q: What about the TGI (UACC-62 melanoma) of the same molecule?
A: The TGI was greater than 100 µM.

Q: What about the TGI (MDA-N) of the same molecule?
A: The TGI was greater than 100 µM.

Q: What about the TGI (NCI-H460 lung) of the same molecule?
A: Its TGI is greater than 100 µM.

Q: And the TGI (RPMI-8226 leukemia)?
A: The TGI was greater than 100 µM.

Q: And the TGI (OVCAR-3 ovarian)?
A: Its TGI is greater than 100 µM.

Q: And the TGI (OVCAR-4 ovarian)?
A: Its TGI is greater than 100 µM.

Q: And the TGI (LOX IMVI melanoma)?
A: Its TGI is greater than 100 µM.

Q: What about the TGI (K-562 leukemia) of the same molecule?
A: The TGI was greater than 100 µM.

Q: What about the TGI (A498 renal) of the same molecule?
A: The TGI was 32.1 µM.

Q: What about the TGI (HOP-92 NSCLC) of the same molecule?
A: Its TGI is greater than 100 µM.

Q: And the TGI (786-0 renal)?
A: Its TGI is greater than 100 µM.

Q: What about the TGI (NCI-H522 lung) of the same molecule?
A: Its TGI is greater than 100 µM.

Q: What about the TGI (HL-60(TB) leukemia) of the same molecule?
A: Its TGI is greater than 100 µM.

Q: What about the TGI (PC-3 prostate) of the same molecule?
A: The TGI was greater than 100 µM.

Q: And the TGI (DU-145 prostate)?
A: The TGI was greater than 91.4 µM.

Q: And the TGI (SW-620 colon)?
A: Its TGI is greater than 100 µM.

Q: What about the TGI (SNB-75 CNS) of the same molecule?
A: The TGI was 78 µM.

Q: And the TGI (HCT-116 colon)?
A: The TGI was greater than 100 µM.

Q: What about the TGI (SK-MEL-2 melanoma) of the same molecule?
A: Its TGI is greater than 100 µM.

Q: And the TGI (NCI/ADR-RES ovarian)?
A: The TGI was greater than 100 µM.

Q: What about the TGI (MOLT-4 leukemia) of the same molecule?
A: The TGI was greater than 100 µM.

Q: And the TGI (HCC-2998 colon)?
A: The TGI was greater than 100 µM.

Q: And the TGI (CAKI-1 renal)?
A: Its TGI is greater than 88.1 µM.

Q: What about the TGI (NCI-H23 lung) of the same molecule?
A: Its TGI is greater than 97.3 µM.

Q: And the TGI (KM12 colon)?
A: The TGI was greater than 100 µM.

Q: What about the TGI (SF-539 CNS) of the same molecule?
A: Its TGI is greater than 77.3 µM.

Q: And the TGI (ACHN renal)?
A: The TGI was greater than 100 µM.

Q: And the TGI (HS 578T breast)?
A: Its TGI is 69.1 µM.

Q: What about the TGI (UO-31 renal) of the same molecule?
A: The TGI was greater than 100 µM.

Q: What about the TGI (SF-268 CNS) of the same molecule?
A: Its TGI is greater than 100 µM.

Q: What about the TGI (MCF7 breast) of the same molecule?
A: The TGI was greater than 100 µM.
